# From US6376510B1, “Neuromuscular relaxants” (Newlaxant LLC, priority 1997, dated 2002)
# Key:
# [1] = tested on: anesthetized rats (evoked responses of anterior tibial muscle); assay: In vivo neuromuscular block and cardiovascular side effects, anesthetized rat (Example 8, Table 3)
# How it was run: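 Pentobarbital-anesthetized (i.p.), ventilated adult male rats given saline-dissolved agents i.v.; anterior tibial EMG responses to supramaximal single or train-of-four sciatic/peroneal stimuli, plus 0.1 or 1 Hz stimulation. Doses for 50%, 80%, 90% block derived. Onset: minutes to 80-85% block; RI: 25-75% spontaneous recovery; vagal block, heart rate and blood pressure changes (%) at 80-85% blocking dose.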
# [2] = tested on: anesthetized cats (evoked responses of anterior tibial muscle); assay: animal or person
# How it was run: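 Adult cats anesthetized i.p. with 70 mg/kg alpha chloralose plus 0.5 g/kg ethylurethane; agents in saline given i.v. Anterior tibial muscle responses to supramaximal single or train-of-four stimuli of sciatic or peroneal nerve recorded electromyographically and mechanomyographically, alongside blood pressure and heart rate.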
# [3] = tested on: anesthetized juvenile pigs; assay: animal or person; assay type: in vivo; conditions: pig
# How it was run: (§1)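 Electromyographic and mechanomyographic responses quantified. Monkeys sedated with intramuscular ketamine, then general anesthesia with intravenous pentobarbital and propofol; juvenile pigs induced with inhaled halothane.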
# anesthetized monkeys = assay: In vivo neuromuscular block and cardiovascular side effects, monkey (Example 8, Table 6)
# How it was run: as §1
# rabbits = assay: In vivo neuromuscular block and cardiovascular side effects, rabbit (Example 8, Table 7)
# dogs = assay: animal or person; assay type: in vivo; conditions: dog
# [4] = tested on: anesthetized rats (evoked responses of anterior tibial muscle); assay: Muscle relaxant (neuromuscular blocking) properties, anesthetized rat (Example 9, Table 9); conditions: for Onset: time to 80-85% neuromuscular block
# From the text: (§2) The data on muscle relaxant action were obtained on anesthetized rats, and when indicated, also on juvenile pigs
# (§3) Adult, male albino rats were anesthetized with pentobarbital injected intraperitoneally. Juvenile, Duroc pigs 9-12 kg body weight were anesthetized with Chloralose Nembutal sodium mixture intraperitoneally after deep sedation with inhaled halothane. The trachea was cannulated for artificial respiration via a small animal respirator. The carotid artery was cannulated for recording blood pressure via a transducer and heart rate by a cardiotachograph on a polygraph. One external jugular vein was cannulated for i.v. drug administration. Neuromuscular function was monitored by electromyography, recording evoked responses from the anterior tibial muscle as a result of supramaximal nerve stimuli consisting of single or “train-of-four” rectangular pulses of 0.1-0.2 msec duration every 10-12 seconds, delivered to the sciatic or common peroneal nerve by a laboratory nerve stimulator. Another mode of stimulation included repeated single stimuli delivered at 0.1 Hz or 1 Hz. […] The agents were dissolved in physiologic saline and injected intravenously at appropriate time intervals. The intensity, onset, and duration of neuromuscular block and its type were determined with each agent. Through administering several doses, the doses corresponding to 50%, 80% and 90% neuromuscular block were determined. All agents were compared with selected standard neuromuscular blocking compounds, e.g., rocuronium.
# (§4) Onset=time in minutes to 80-85% neuromuscular block.
# (§5) RI=recovery index, minutes, spontaneous recovery, 25-75% neuromuscular response.
# (§6) VB=vagal block, %, at 80-85% neuromuscular blocking dose.
# (§7) HR=change in heart rate, %, at 80-85% neuromuscular blocking dose.
# (§8) BP=change in arterial blood pressure, %, at 80-85% neuromuscular blocking dose.
# [5] = tested on: anesthetized juvenile Duroc pigs; assay: animal or person; conditions: for % VB at ED80 nmb (vagal block) / BP (change in arterial blood pressure) / HR (change in heart rate): in vivo; for RI (recovery index): spontaneous recovery, 25-75% neuromuscular response; for Onset: time to 80-85% neuromuscular block
# From the text: as §2, §3, §4, §5, §6, §7, §8
# [6] = time to 80-85% neuromuscular block
molecule,measurement,setting,value
"C=CC[N+]1([C@H]2C[C@H]3[C@@H]4CC[C@H]5C[C@H](O)[C@@H](N6CCOCC6)C[C@]5(C)[C@H]4CC[C@]3(C)[C@H]2OC(C)=O)CCCC1 [Rocuronium, reference compound]",ED50,"[1]; Rattus norvegicus, iv",0.45 mg/kg
same,VB (vagal block),"[1]; male, rat, in vivo",60%
same,ΔBP (change in arterial blood pressure),"[1]; male, rat, in vivo",0%
same,ΔH (change in heart rate),"[1]; male, rat, in vivo",0%
same,RI (recovery index),"[1]; rat, in vivo",1.3 min
same,Onset,"[1]; rat, time to 80-85% neuromuscular block",0.95 min
same,ED50,"[2]; Felis catus, iv",0.185 mg/kg
same,ΔBP (change in arterial blood pressure),"[2]; cat, in vivo",0%
same,ΔH (change in heart rate),"[2]; cat, in vivo",0%
same,Onset,"[2]; cat, time to 80-85% neuromuscular block",2.1 min
same,RI (recovery index),[2]; in vivo,3.8 min
same,ED50,"[3]; Sus scrofa, intravenous dose causing 50% neuromuscular block, read-out: ED50",0.35 mg/kg
same,RI (recovery index),[3]; in vivo,3.2 min
same,VB (vagal block),[3]; in vivo,47%
same,ΔBP (change in arterial blood pressure),[3]; in vivo,0%
same,ΔH (change in heart rate),[3]; in vivo,0%
same,Onset,[3]; [6],1.5 min
same,ED50,"anesthetized monkeys; Primates, intravenous dose causing 50% neuromuscular block, read-out: ED50",0.013 mg/kg
same,RI (recovery index),anesthetized monkeys; in vivo,5.6 min
same,ΔBP (change in arterial blood pressure),anesthetized monkeys; in vivo,0%
same,ΔH (change in heart rate),anesthetized monkeys; in vivo,0%
same,Onset,anesthetized monkeys; [6],3.5 min
same,ED50,"rabbits; Oryctolagus cuniculus, intravenous dose causing 50% neuromuscular block, read-out: ED50",0.03 mg/kg
same,RI (recovery index),rabbits; in vivo,2.4 min
same,ΔBP (change in arterial blood pressure),rabbits; in vivo,0%
same,ΔH (change in heart rate),rabbits; in vivo,0%
same,Onset,rabbits; [6],1.1 min
same,ED50,"dogs; Canis lupus familiaris, intravenous dose causing 50% neuromuscular block, read-out: ED50",0.076 mg/kg
same,RI (recovery index),dogs; in vivo,3.3 min
same,ΔBP (change in arterial blood pressure),dogs; in vivo,0%
same,ΔH (change in heart rate),dogs; in vivo,0%
same,Onset,dogs; [6],1.9 min
same,ED50,"[4]; Rattus norvegicus, iv",0.45 mg/kg
same,% VB at ED80 nmb (vagal block),"[4]; male, rat, in vivo",60%
same,BP (change in arterial blood pressure),"[4]; male, rat, in vivo",0%
same,HR (change in heart rate),"[4]; male, rat, in vivo",0%
same,RI (recovery index),"[4]; rat, in vivo",1.3 min
same,Onset,[4]; rat,0.95 min
same,% VB at ED80 nmb (vagal block),"[5]; Duroc, pig",47%
same,BP (change in arterial blood pressure),"[5]; Duroc, pig",0%
same,HR (change in heart rate),"[5]; Duroc, pig",0%
same,ED50,"[5]; Sus scrofa, iv",0.35 mg/kg
same,RI (recovery index),[5]; pig,3.2 min
same,Onset,[5]; pig,1.5 min
"Bis[N-(3,4-diacetoxybenzyl)-6-azabicyclo[3.2.1]octanium-3-yl]cyclohexane-1,3-dicarboxylate dibromide",% VB at ED80 nmb (vagal block),"[4]; rat, in vivo",5 (2) %
same,BP (change in arterial blood pressure),"[4]; rat, in vivo",0%
same,HR (change in heart rate),"[4]; rat, in vivo",0%
same,ED50,"[4]; rat, intravenous dose causing 50% neuromuscular block, spread in brackets",384 (42) μg/kg
same,RI (recovery index),"[4]; rat, spontaneous recovery, 25-75% neuromuscular response",0.5 (0.04) min
same,Onset,[4]; rat,0.7 (0.05) min
same,% VB at ED80 nmb (vagal block),[5]; pig,70%
same,BP (change in arterial blood pressure),[5]; pig,0%
same,HR (change in heart rate),[5]; pig,0%
same,ED50,"[5]; pig, intravenous dose causing 50% neuromuscular block",0.78 mg/kg
same,RI (recovery index),[5]; pig,0.85 min
same,Onset,[5]; pig,0.5 min
